How the values were obtained:
Experiment in all cases: Test E pre-/postemergence herbicide test
bipinnate beggarticks = type: in vivo, Bidens bipinnata; settings: scale 0 to 100
Outline: (§1)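 Seeds were planted and treated preemergence with test chemicals in a non-phytotoxic solvent mixture containing surfactant; plants at 2 to 18 cm (1- to 4-leaf stage) received postemergence applications of the same formulation. After 12 to 14 days in a greenhouse, injury was visually rated against untreated controls on a 0 to 100 scale.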

hairy beggarticks = type: in vivo, Bidens radiata; settings: Preemergence
Text: Seeds of plant species selected from bipinnate beggarticks (Bidens bipinnata L.), hairy beggarticks (Bidens radiata Thuill.), bermudagrass (Cynodon dactylon (L.) Pers.), Surinam grass (Urochloa decumbens (Staph) R. D. Webster, previously named Brachiaria decumbens Stapf), large crabgrass (Digitaria sanguinalis (L.) Scop.), green foxtail (Setaria viridis (L.) P. Beauv.), goosegrass (Eleusine indica (L.) Gaertn.), johnsongrass (Sorghum halepense (L.) Pers.), kochia (Kochia scoparia (L.) Schrad.), pitted morningglory (Ipomoea lacunosa L.), purple nutsedge (Cyperus rotundus L.), common ragweed (Ambrosia elatior L.), mustard (Brassica nigra (L.) W. D. J. Koch), guineagrass (Panicum maximum Jacq.), dallisgrass (Paspalum dilatatum Poir.), barnyardgrass (Echinochloa crus-galli (L). P. Beauv.), southern sandbur (Cenchrus echinatus L.), common sowthistle (Sonchus oleraceous L.), prickly sida (Sida spinosa L.), Italian ryegrass (Lolium multiflorum Lam.), common purslane (Portulaca oleracea L.), broadleaf signalgrass (Brachiaria platyphylla (Griseb.) Nash), common groundsel (Senecio vulgaris L.), common chickweed (Stellaria media (L.) Vill/Cyr.), tropical spiderwort (Commelina benghalensis L.), annual bluegrass (Poa annua L.), downy bromegrass (Bromus tectorum L.), itchgrass (Rottboellia cochinchinensis (L.) L.f.), quackgrass (Elytrigia repens (L.) Nevski), Canada horseweed (Erigeron Canadensis L.), field bindweed (Convolvulus arvensis L.), spotted spurge (Euphorbia maculata L.), common mallow (Malva sylvestris (=s silvestris) L.), and Russian thistle (Salsola kali L. ssp. Ruthenica (Iljin) Soo) were planted and treated preemergence with test chemicals formulated in a non-phytotoxic solvent mixture which included a surfactant.
At the same time, plants selected from these weed species were treated with postemergence applications of some of the test chemicals formulated in the same manner. Plants ranged in height from 2 to 18 cm (1- to 4-leaf stage) for postemergence treatments. Treated plants and controls were maintained in a greenhouse for 12 to 14 days, after which time all species were compared to controls and visually evaluated. Plant response ratings, summarized in Table E, are based on a scale of 0 to 100 where 0 is no effect and 100 is complete control. A dash (-) response means no test result.

johnsongrass = type: in vivo, Sorghum halepense
Outline: as §1

pitted morningglory = type: in vivo, Ipomoea lacunosa
Outline: as §1

purple nutsedge = type: in vivo, Cyperus rotundus
Outline: as §1

prickly sida = type: in vivo, Sida spinosa
Outline: as §1

common purslane = type: in vivo, Portulaca oleracea; settings: scale 0 to 100
Outline: as §1

common groundsel = type: in vivo, Senecio vulgaris; settings: scale 0 to 100
Outline: as §1

annual bluegrass = type: in vivo, Poa annua
Outline: as §1

downy bromegrass = type: in vivo, Bromus tectorum
Outline: as §1

field bindweed = type: in vivo, Convolvulus arvensis
Outline: as §1

common mallow = type: in vivo, Malva sylvestris
Outline: as §1

[1] = 250 g ai/ha, scale 0 (no effect) to 100 (complete control)
[2] = 500 g ai/ha, scale 0 (no effect) to 100 (complete control)
[3] = Postemergence, 500 g ai/ha, scale 0 to 100
[4] = Postemergence, 250 g ai/ha, scale 0 to 100
[5] = Preemergence, 62 g ai/ha, scale 0 to 100
[6] = Preemergence, 125 g ai/ha, scale 0 to 100
[7] = Preemergence, 250 g ai/ha, scale 0 (no effect) to 100 (complete control)
[8] = Preemergence, 500 g ai/ha, scale 0 (no effect) to 100 (complete control)
[9] = postemergence, 125 g ai/ha, scale 0 to 100
[10] = postemergence, 62 g ai/ha, scale 0 to 100
[11] = Preemergence, 375 g ai/ha, scale 0 (no effect) to 100 (complete control)

SMILES: CCn1nc(C2(C)CC2)cc1C(=O)Nc1cc(C(=O)N(C)C)ccc1F [Compound 299]
- Plant response rating, Beggarticks, Bip. (bipinnate beggarticks; Postemergence, 500 g ai/ha): 80
- Plant response rating, Beggarticks, Bip. (bipinnate beggarticks; Postemergence, 250 g ai/ha): 60
- Plant response rating, Beggarticks, Bip. (bipinnate beggarticks; postemergence, 125 g ai/ha): 60
- Plant response rating, Beggarticks, Bip. (bipinnate beggarticks; postemergence, 62 g ai/ha): 40
- Plant response rating, Beggarticks, Hairy (hairy beggarticks; 62 g ai/ha, scale 0 to 100): 50
- Plant response rating, Beggarticks, Hairy (hairy beggarticks; 125 g ai/ha, scale 0 to 100): 100
- Plant response rating, Beggarticks, Hairy (hairy beggarticks; [1]): 100
- Plant response rating, Beggarticks, Hairy (hairy beggarticks; [2]): 100
- Plant response rating, Johnsongrass (johnsongrass; [3]): 85
- Plant response rating, Johnsongrass (johnsongrass; [4]): 85
- Plant response rating, Johnsongrass (johnsongrass; [5]): 40
- Plant response rating, Johnsongrass (johnsongrass; [6]): 60
- Plant response rating, Johnsongrass (johnsongrass; [7]): 80
- Plant response rating, Johnsongrass (johnsongrass; [8]): 100
- Plant response rating, Johnsongrass (johnsongrass; [9]): 80
- Plant response rating, Johnsongrass (johnsongrass; [10]): 60
- Plant response rating, Morningglory (pitted morningglory; [3]): 60
- Plant response rating, Morningglory (pitted morningglory; [4]): 40
- Plant response rating, Morningglory (pitted morningglory; [5]): 10
- Plant response rating, Morningglory (pitted morningglory; [6]): 75
- Plant response rating, Morningglory (pitted morningglory; [7]): 90
- Plant response rating, Morningglory (pitted morningglory; [9]): 20
- Plant response rating, Morningglory (pitted morningglory; [10]): 10
- Plant response rating, Nutsedge, Purple (purple nutsedge; [3]): 85
- Plant response rating, Nutsedge, Purple (purple nutsedge; [4]): 80
- Plant response rating, Nutsedge, Purple (purple nutsedge; [5]): 50
- Plant response rating, Nutsedge, Purple (purple nutsedge; [7]): 80
- Plant response rating, Nutsedge, Purple (purple nutsedge; [9]): 75
- Plant response rating, Nutsedge, Purple (purple nutsedge; [10]): 40
- Plant response rating, Prickly Sida (prickly sida; [3]): 95
- Plant response rating, Prickly Sida (prickly sida; [4]): 95
- Plant response rating, Prickly Sida (prickly sida; [5]): 85
- Plant response rating, Prickly Sida (prickly sida; [6]): 85
- Plant response rating, Prickly Sida (prickly sida; [7]): 100
- Plant response rating, Prickly Sida (prickly sida; [8]): 100
- Plant response rating, Prickly Sida (prickly sida; [9]): 95
- Plant response rating, Prickly Sida (prickly sida; [10]): 60
- Plant response rating, Purslane (common purslane; Postemergence, 500 g ai/ha): 100
- Plant response rating, Purslane (common purslane; Postemergence, 250 g ai/ha): 80
- Plant response rating, Purslane (common purslane; postemergence, 125 g ai/ha): 75
- Plant response rating, Purslane (common purslane; postemergence, 62 g ai/ha): 70
- Plant response rating, Groundsel (common groundsel; Postemergence, 250 g ai/ha): 100
- Plant response rating, Groundsel (common groundsel; postemergence, 125 g ai/ha): 70
- Plant response rating, Bluegrass (annual bluegrass; [3]): 100
- Plant response rating, Bluegrass (annual bluegrass; [4]): 80
- Plant response rating, Bluegrass (annual bluegrass; [5]): 85
- Plant response rating, Bluegrass (annual bluegrass; [6]): 95
- Plant response rating, Bluegrass (annual bluegrass; [7]): 95
- Plant response rating, Bluegrass (annual bluegrass; [8]): 100
- Plant response rating, Bluegrass (annual bluegrass; [9]): 70
- Plant response rating, Bluegrass (annual bluegrass; [10]): 60
- Plant response rating, Bromegrass, Downy (downy bromegrass; [3]): 95
- Plant response rating, Bromegrass, Downy (downy bromegrass; [4]): 80
- Plant response rating, Bromegrass, Downy (downy bromegrass; [7]): 100
- Plant response rating, Bromegrass, Downy (downy bromegrass; [8]): 100
- Plant response rating, Bromegrass, Downy (downy bromegrass; [9]): 70
- Plant response rating, Bromegrass, Downy (downy bromegrass; [10]): 50
- Plant response rating, Bindweed, Field (field bindweed; [3]): 95
- Plant response rating, Bindweed, Field (field bindweed; [4]): 80
- Plant response rating, Bindweed, Field (field bindweed; [5]): 10
- Plant response rating, Bindweed, Field (field bindweed; [6]): 60
- Plant response rating, Bindweed, Field (field bindweed; [7]): 95
- Plant response rating, Bindweed, Field (field bindweed; [8]): 100
- Plant response rating, Bindweed, Field (field bindweed; [9]): 70
- Plant response rating, Bindweed, Field (field bindweed; [10]): 30
- Plant response rating, Mallow (common mallow; [3]): 100
- Plant response rating, Mallow (common mallow; [4]): 50
- Plant response rating, Mallow (common mallow; [5]): 50
- Plant response rating, Mallow (common mallow; [6]): 75
- Plant response rating, Mallow (common mallow; [7]): 95
- Plant response rating, Mallow (common mallow; [8]): 100
- Plant response rating, Mallow (common mallow; [9]): 30
- Plant response rating, Mallow (common mallow; [10]): 10

SMILES: CCn1nc(C(C)(C)C)cc1C(=O)Nc1cc(C(=S)N(C)C)ccc1F [Compound 294]
- Plant response rating, Beggarticks, Bip. (bipinnate beggarticks; Postemergence, 500 g ai/ha): 75
- Plant response rating, Beggarticks, Bip. (bipinnate beggarticks; Postemergence, 250 g ai/ha): 70
- Plant response rating, Beggarticks, Bip. (bipinnate beggarticks; postemergence, 125 g ai/ha): 60
- Plant response rating, Beggarticks, Bip. (bipinnate beggarticks; postemergence, 62 g ai/ha): 40
- Plant response rating, Beggarticks, Hairy (hairy beggarticks; 125 g ai/ha, scale 0 to 100): 100
- Plant response rating, Beggarticks, Hairy (hairy beggarticks; [1]): 100
- Plant response rating, Beggarticks, Hairy (hairy beggarticks; 375 g ai/ha, scale 0 (no effect) to 100 (complete control)): 100
- Plant response rating, Beggarticks, Hairy (hairy beggarticks; [2]): 100
- Plant response rating, Johnsongrass (johnsongrass; [3]): 90
- Plant response rating, Johnsongrass (johnsongrass; [4]): 80
- Plant response rating, Johnsongrass (johnsongrass; [6]): 30
- Plant response rating, Johnsongrass (johnsongrass; [7]): 75
- Plant response rating, Johnsongrass (johnsongrass; [11]): 85
- Plant response rating, Johnsongrass (johnsongrass; [8]): 85
- Plant response rating, Johnsongrass (johnsongrass; [9]): 70
- Plant response rating, Johnsongrass (johnsongrass; [10]): 40
- Plant response rating, Morningglory (pitted morningglory; [3]): 20
- Plant response rating, Morningglory (pitted morningglory; [4]): 20
- Plant response rating, Morningglory (pitted morningglory; [6]): 10
- Plant response rating, Morningglory (pitted morningglory; [7]): 10
- Plant response rating, Morningglory (pitted morningglory; [11]): 40
- Plant response rating, Morningglory (pitted morningglory; [8]): 70
- Plant response rating, Morningglory (pitted morningglory; [9]): 10
- Plant response rating, Morningglory (pitted morningglory; [10]): 0
- Plant response rating, Nutsedge, Purple (purple nutsedge; [3]): 90
- Plant response rating, Nutsedge, Purple (purple nutsedge; [4]): 80
- Plant response rating, Nutsedge, Purple (purple nutsedge; [6]): 80
- Plant response rating, Nutsedge, Purple (purple nutsedge; [7]): 80
- Plant response rating, Nutsedge, Purple (purple nutsedge; [11]): 80
- Plant response rating, Nutsedge, Purple (purple nutsedge; [8]): 90
- Plant response rating, Nutsedge, Purple (purple nutsedge; [9]): 70
- Plant response rating, Nutsedge, Purple (purple nutsedge; [10]): 50
- Plant response rating, Prickly Sida (prickly sida; [3]): 100
- Plant response rating, Prickly Sida (prickly sida; [4]): 80
- Plant response rating, Prickly Sida (prickly sida; [6]): 100
- Plant response rating, Prickly Sida (prickly sida; [7]): 100
- Plant response rating, Prickly Sida (prickly sida; [11]): 100
- Plant response rating, Prickly Sida (prickly sida; [8]): 100
- Plant response rating, Prickly Sida (prickly sida; [9]): 70
- Plant response rating, Prickly Sida (prickly sida; [10]): 50
- Plant response rating, Purslane (common purslane; Postemergence, 500 g ai/ha): 90
- Plant response rating, Purslane (common purslane; Postemergence, 250 g ai/ha): 90
- Plant response rating, Purslane (common purslane; postemergence, 125 g ai/ha): 60
- Plant response rating, Purslane (common purslane; postemergence, 62 g ai/ha): 10
- Plant response rating, Groundsel (common groundsel; Postemergence, 250 g ai/ha): 90
- Plant response rating, Groundsel (common groundsel; postemergence, 62 g ai/ha): 50
- Plant response rating, Bluegrass (annual bluegrass; [3]): 95
- Plant response rating, Bluegrass (annual bluegrass; [4]): 95
- Plant response rating, Bluegrass (annual bluegrass; [6]): 95
- Plant response rating, Bluegrass (annual bluegrass; [7]): 95
- Plant response rating, Bluegrass (annual bluegrass; [11]): 95
- Plant response rating, Bluegrass (annual bluegrass; [8]): 100
- Plant response rating, Bluegrass (annual bluegrass; [9]): 95
- Plant response rating, Bluegrass (annual bluegrass; [10]): 95
- Plant response rating, Bromegrass, Downy (downy bromegrass; [3]): 95
- Plant response rating, Bromegrass, Downy (downy bromegrass; [4]): 85
- Plant response rating, Bromegrass, Downy (downy bromegrass; [6]): 80
- Plant response rating, Bromegrass, Downy (downy bromegrass; [7]): 100
- Plant response rating, Bromegrass, Downy (downy bromegrass; [11]): 100
- Plant response rating, Bromegrass, Downy (downy bromegrass; [8]): 100
- Plant response rating, Bromegrass, Downy (downy bromegrass; [9]): 75
- Plant response rating, Bromegrass, Downy (downy bromegrass; [10]): 60
- Plant response rating, Bindweed, Field (field bindweed; [3]): 70
- Plant response rating, Bindweed, Field (field bindweed; [4]): 50
- Plant response rating, Bindweed, Field (field bindweed; [6]): 10
- Plant response rating, Bindweed, Field (field bindweed; [7]): 90
- Plant response rating, Bindweed, Field (field bindweed; [11]): 95
- Plant response rating, Bindweed, Field (field bindweed; [8]): 100
- Plant response rating, Bindweed, Field (field bindweed; [9]): 50
- Plant response rating, Bindweed, Field (field bindweed; [10]): 10
- Plant response rating, Mallow (common mallow; [3]): 100
- Plant response rating, Mallow (common mallow; [4]): 50
- Plant response rating, Mallow (common mallow; [6]): 40
- Plant response rating, Mallow (common mallow; [7]): 40
- Plant response rating, Mallow (common mallow; [8]): 80
- Plant response rating, Mallow (common mallow; [9]): 40
- Plant response rating, Mallow (common mallow; [10]): 20

— US20060069132A1, “Azolecarboxamide herbicides” (priority 2004, published 2006)
